One series concerns LNCaP. Nature of the series: Cell-Titer-Glo inhibition of cell proliferation, LNCaP. It is filed as cell-based. The following applies: Homo sapiens, CellTiter-Glo, 72 h. On the procedure: (§1) V. Cell-Titer-Glo—Inhibition of Cell Proliferation by PLK1 Inhibitors
(§2) Exponentially growing cell lines of different tumor origins, cultured in appropriate media containing 10% fetal bovine serum at 37° C. in a 5% CO2 incubator were plated at low density (less than 2000 cells/well) in 96-well plates. Twenty four hours post-plating, cells were treated with different concentrations of test compounds ranging from 10 uM to 0.04 nM. Several wells were left untreated as a control. Seventy two hours post-treatment, cell numbers were determined using 50-100 ul per well of CellTiter-Glo (Promega #G7573). Plates were incubated at room temperature for 15 minutes and the chemiluminescent signal was read on the Victor V or Envison 2100 reader.
(§3) The Cell-Titer Glo data are shown in Table 2 below and represent a compilation of several different experiments, each performed using the general parameters outlined above, although minor variations may have been employed in some instances.
(In general: In ATP-based viability assays light output follows the ATP content of the culture.)

Series [1] deals with HCT116. Description: Cell-Titer-Glo inhibition of cell proliferation, HCT116. It is filed as cell-based. Particulars: Homo sapiens, HCT-116, CellTiter-Glo, 72 h. Here is the method:
as §1, §2, §3

Another series has as its system ASPC3. Description: Cell-Titer-Glo inhibition of cell proliferation, ASPC3. Particulars: CellTiter-Glo, 72 h. It is filed as cell-based. On the procedure: as §1, §2, §3
The subject of another series is RKO. Nature of the series: Methylene blue growth inhibition assay, RKO. Particulars: Homo sapiens, methylene blue, 72 h, read-out: RKO IC50. It is filed as cell-based. The procedure, abridged:
(§4)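 Tumour lines and HFF, plated at cell-line-specific densities in DMEM with 10% FBS, were exposed next day to compound (final DMSO 0.3%) for 72 h at 37 °C. Biomass was stained with methylene blue, solubilized in 1% N-lauroyl sarcosine and read at OD 620 nm; percent growth inhibition was calculated against vehicle controls.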

In the next series the test system is HT29. Nature of the series: Cell-Titer-Glo inhibition of cell proliferation, HT29. It is filed as cell-based. Particulars: Homo sapiens, HT-29, CellTiter-Glo, 72 h. On the procedure:
as §1, §2, §3

A further series has as its system HN5. Description: Cell-Titer-Glo inhibition of cell proliferation, HN5. Particulars: Homo sapiens, CellTiter-Glo, 72 h. It is filed as cell-based. Here is the method:
as §1, §2, §3

The test system of the next series is COLO205. Description: Cell-Titer-Glo inhibition of cell proliferation, COLO205. The following applies: Homo sapiens, COLO 205, CellTiter-Glo, 72 h. It is filed as cell-based. Here is the method:
as §1, §2, §3

For the next series, the system named is human plasma proteins. Description: Protein binding to human plasma proteins using equilibrium dialysis. It is filed as in vitro ADME. The following applies: pH 7.4, equilibrium dialysis 6 h, 37° C. The procedure, abridged: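 Equilibrium dialysis of human plasma spiked at 2000 ng/mL against PBS pH 7.4 across a 12,000–14,000 Da membrane, 6 h at 37 °C with shaking, eight wells per compound. Donor and receiver samples were quantified by LC/MS/MS analyte/internal standard peak area ratios. Binding is reported in bands: >98%, 95–98%, <95%.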
A general note: Equilibrium dialysis compares concentrations on both sides of a semipermeable membrane.

In a further series the test system is MX-1. Description: Cell-Titer-Glo inhibition of cell proliferation, MX-1. Particulars: Homo sapiens, MX1, CellTiter-Glo, 72 h. Type of series: cell-based. On the procedure: as §1, §2, §3
Another series has as its system H1299. Description: Cell-Titer-Glo inhibition of cell proliferation, H1299. It is filed as cell-based. The following applies: Homo sapiens, NCI-H1299, CellTiter-Glo, 72 h. On the procedure:
as §1, §2, §3

A further series has as its system P388. Nature of the series: Cell-Titer-Glo inhibition of cell proliferation, P388. It is filed as cell-based. Particulars: Mus musculus, CellTiter-Glo, 72 h. Here is the method: as §1, §2, §3
Series [2] concerns normal human foreskin fibroblasts (HFF). Nature of the series: Methylene blue growth inhibition assay, HFF. The following applies: Fibroblast, methylene blue, 72 h, HFF normal fibroblasts, read-out: HFF IC50. It is filed as cell-based. The procedure, abridged:
as §4

Series [3] deals with HCT116. Description: Methylene blue growth inhibition assay, HCT116. Type of series: cell-based. Particulars: Homo sapiens, HCT-116; methylene blue, 72 h, HCT116; read-out: HCT116 IC50. The gist of the method: as §4
For a further series, the system named is MDA-MB-468. Description: Cell-Titer-Glo inhibition of cell proliferation, MDA-MB-468. The following applies: Homo sapiens, CellTiter-Glo, 72 h. It is filed as cell-based. On the procedure: as §1, §2, §3
The test system of the next series is MCF7. Nature of the series: Methylene blue growth inhibition assay, MCF7. Type of series: cell-based. The following applies: Homo sapiens; methylene blue, 72 h, MCF7; read-out: MCF7 IC50. The procedure, abridged: as §4
In a further series the test system is PANC-1. Nature of the series: Cell-Titer-Glo inhibition of cell proliferation, PANC-1. Particulars: Homo sapiens, CellTiter-Glo, 72 h. Type of series: cell-based. Here is the method: as §1, §2, §3

We go through one molecule from patent US7595330B2, “Benzimidazole thiophene compounds” (SmithKline Beecham Corporation, priority 2005, dated 2009).

pIC50: −log10 of the molar value.

As to `C[C@@H](Oc1cc(-n2cnc3ccc(CN4CCN(C)CC4)cc32)sc1C(N)=O)c1ccccc1C(F)(F)F` [Example 3, 5-{6-[(4-Methylpipiperazin-1-yl)methyl]-1H-benzimidazol-1-yl}-3-{(1R)-1-[2-(trifluoromethyl)phenyl]ethoxy}thiophene-2-carboxamide], the pIC50 was over 6.30 with LNCaP; over 6.30 in the series with HCT116 [1]; over 6.30 with ASPC3; over 7.00 in the series with RKO; over 6.30 with HT29; over 6.30 with HN5. In addition, the pIC50 in the series with COLO205 is over 6.30; in the series on MX-1 it was over 6.30; in the series on H1299 it was over 6.30; with P388, over 6.30; in [2] it was over 7.00; in the series on HCT116 [3] it was over 7.00. The pIC50 was over 6.30 in the series on MDA-MB-468, over 7.00 with MCF7 and over 6.30 with PANC-1. Further, the fraction unbound at 6 h, 2000 ng/mL in the series with human plasma proteins is over 0.05.

The pIC50 is the negative decadic logarithm of the IC50, by convention in mol/L. For orientation: fraction unbound means the share of the substance not bound to proteins or other matrix. Read a high fraction unbound as much free substance.
